Legend:
PTGDR2 = molecular target: T1, PTGDR2 (Homo sapiens, UniProt Q9Y5Y4); experiment: NanoBRET screen HiBiT-PTGDR2 in HEK293; assay type: binding; details: PTGDR2
T1 construct: purchased Promega (in-house HiBiT-GPCR construct library, NanoBRET)
T1 sequence (Q9Y5Y4 1-395): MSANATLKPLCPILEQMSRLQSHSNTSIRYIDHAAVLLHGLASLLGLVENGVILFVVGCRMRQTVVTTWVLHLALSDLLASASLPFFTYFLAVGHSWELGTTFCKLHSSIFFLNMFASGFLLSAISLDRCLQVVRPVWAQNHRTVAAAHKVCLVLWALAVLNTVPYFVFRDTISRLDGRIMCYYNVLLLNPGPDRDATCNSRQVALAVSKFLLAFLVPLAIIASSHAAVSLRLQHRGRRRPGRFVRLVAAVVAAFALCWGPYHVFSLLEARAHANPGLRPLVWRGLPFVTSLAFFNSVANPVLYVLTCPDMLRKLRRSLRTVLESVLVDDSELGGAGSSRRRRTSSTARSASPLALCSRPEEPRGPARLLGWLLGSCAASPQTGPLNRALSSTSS
Experimental: (§1) Each tracer candidate was screened across the entire library of HiBiT-GPCR constructs using NanoBRET as the detection modality. As depicted in Figure 4A, the specificity of interactions was evaluated through decrease in BRET due to competitive displacement of a bound tracer by excess parental compound. Each tracer was analyzed for binding to each HiBiT-GPCR fusion in the absence and in the presence of competing parental compound. Briefly, HEK293 cells were transfected with HiBiT-GPCR constructs diluted into promoterless DNA to reduce expression and maximize translocation to the cell surface. Each tracer candidate was then screened at concentrations of 1 μM and 0.1 μM across cells expressing these fusions. Cells were treated for 1.5 h with tracer either alone or in the presence of 20 μM competing parental compound (i.e., control). BRET was measured upon addition of purified LgBiT and subsequent complementation with HiBiT genetically fused to a GPCR. The specificity of interactions was assessed through a decrease in BRET signal due to competitive displacement of the bound tracer. To further gauge the robustness of these interactions, the fold response over the control (i.e., BRETtracer/BRETcontrol) was calculated. We chose a 1.5-fold response, which translates to ≥7-fold signal over noise as the minimal threshold required to score an interaction as positive. […]. Below we highlight the screening results obtained for our exemplary fluorescent tracers based on Clozapine, Amitriptyline and AZD1283.
(§2) HiBiT-GPCR DNA constructs were diluted in 10 mM Tris pH 8 to a final concentration of 0.01 μg/μL, arrayed in 96-well plates and stored at −20 °C. For transfection, HEK293 cells were suspended in Opti-MEM (without phenol red) supplemented with 2% fetal bovine serum (Seradigm) and 100 units/mL penicillin–streptomycin (Gibco) at a final concentration of 220,000 cells/mL and dispensed into white 96-well plates at 90 μL/well. Subsequent transfections and screens were carried using an Agilent Bravo Automated Liquid Handling Platform. First, the 96-well HiBiT DNA arrays were diluted 25-fold in Opti-MEM (without serum or phenol red) to a final concentration of 0.0004 μg/μL and 20 μL of the diluted DNAs were transferred into new 96-well plates. Next, promoterless carrier DNA (1 μg/μL) was diluted 25-fold (0.04 μg/μL) and then dispensed into the diluted arrays at 20 μL/well. Following brief mixing, Viafect transfection reagent (Promega) diluted 16-fold into Opti-MEM was dispensed into the plates at 40 μL/well. After mixing by pipetting, plates were incubated for 10 min on the pipetting station deck. The DNA-transfection reagent complexes were then added to plates containing cells. To facilitate the screen, 10 μL of DNA-transfection reagent complexes were added in duplicates to the top 4 and bottom 4 rows, resulting in two identical 48-well arrays per plate. Plates with transfected cells were incubated for 18–20 h at 37 °C/5% CO2. A screen of each tracer across the entire library using two different concentrations requires duplicate plates of transfected cells. Depending on the number of tracers being screened, transfections can be scaled up using the same ratios. The next day, for each tracer, four 20× screening solutions in tracer dilution buffer (Promega) were prepared: two duplicates at final concentration of 20 μM and two duplicates at a final concentration of 2 μM. A competing unmodified compound was added to one of each duplicate at a final concentration of 400 μM. The four resulting solutions were diluted 4-fold in Opti-MEM without serum or phenol red to generate 5× solutions (5 µM and 0.5 µM tracer +/− 100 μM competing compound). To screen the library, a BioTek MultiFlo FX liquid dispenser was used to dispense 22.5 µL of tracer solution to the top 4 rows and 22.5 µL tracer + competing compound solution to the 4 bottom rows. Plates were briefly mixed on an orbital shaker and incubated for 1.5 h at room temperature. […]

CCR6 = molecular target: T2, CCR6 (Homo sapiens, UniProt P51684); experiment: NanoBRET screen HiBiT-CCR6 in HEK293; assay type: binding; details: CCR6
T2 construct: purchased Promega (in-house HiBiT-GPCR construct library, NanoBRET)
T2 sequence (P51684 1-374): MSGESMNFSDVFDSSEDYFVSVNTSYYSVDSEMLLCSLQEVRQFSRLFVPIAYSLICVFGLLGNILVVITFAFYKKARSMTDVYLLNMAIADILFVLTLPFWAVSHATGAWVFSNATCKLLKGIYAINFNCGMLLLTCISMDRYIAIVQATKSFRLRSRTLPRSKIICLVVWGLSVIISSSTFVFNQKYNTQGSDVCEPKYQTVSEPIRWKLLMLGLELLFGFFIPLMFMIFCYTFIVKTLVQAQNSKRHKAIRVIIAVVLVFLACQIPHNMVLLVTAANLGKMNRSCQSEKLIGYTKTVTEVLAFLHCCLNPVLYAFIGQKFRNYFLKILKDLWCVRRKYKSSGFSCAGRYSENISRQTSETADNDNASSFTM
Experimental: as §1, §2

Compound	NanoBRET Fold Response (PTGDR2; tracer 0.1μM)	NanoBRET Fold Response (PTGDR2; tracer 1μM)	NanoBRET Fold Response (CCR6; tracer 0.1μM)	NanoBRET Fold Response (CCR6; tracer 1μM)
CC(C)N(CC[C@H](c1ccccc1)c1cc(CCNC(=O)CCOCCOCCOCCOCCNC(=O)CCc2ccc3n2[B-](F)(F)[N+]2=C(c4ccc[nH]4)C=CC2=C3)ccc1O)C(C)C [Tolterodine-2-NB590]	0.95	0.99	1.07	1.01
CC(C)N(CC[C@H](c1ccccc1)c1cc(CCNC(=O)c2ccc(CNC(=O)CCc3ccc4n3[B-](F)(F)[N+]3=C(c5ccc[nH]5)C=CC3=C4)cc2)ccc1O)C(C)C [Tolterodine-BZ-NB590]	0.98	0.96	1.05	1.03
CCCn1c(=O)c2[nH]c(-c3ccc(OCC(=O)NCCNC(=O)CCOCCNC(=O)c4ccc(CNC(=O)CCc5ccc6n5[B-](F)(F)[N+]5=C(c7ccc[nH]7)C=CC5=C6)cc4)cc3)nc2n(CCC)c1=O [XAC-3-NB590]	1.00	1.06	1.00	1.26
